Assay results taken from US9725449B2, “Tricyclic compounds as anticancer agents” (BRISTOL-MYERS SQUIBB COMPANY, priority 2015, dated 2017).
Blank lines part the entries; values can stand above or below the compound they belong to.

Target: BRD4 (Homo sapiens, UniProt O60885)
Assay: Time resolved fluorescence resonance energy transfer (TR-FRET) binding assay, bromodomain BRD4
Settings: one of the FRET assays described; read-out: FRET BRD4 IC50

Compound: [2H]C([2H])([2H])c1nnn(C)c1-c1cnc2c3c(OCC(C)C)ncc(S(C)(=O)=O)c3n([C@H](c3ccccc3)C3CCOCC3)c2c1 [Example 108, 10-Methanesulfonyl-5-[4-(^2H3)methyl-1-methyl-1H-1,2,3-triazol-5-yl]-13-(2-methylpropoxy)-8-[(S)-oxan-4-yl(phenyl)methyl]-3,8,12-triazatricyclo[7.4.0.0^2,^7]trideca-1(13),2(7),3,5,9,11-hexaene]
IC50: < 10 nM

Compound: [2H]C([2H])([2H])c1nnn(C)c1-c1cnc2c3c(OCC4CCCO4)ncc(S(C)(=O)=O)c3n([C@H](c3ccccc3)C3CCOCC3)c2c1 (stereo partly drawn) [Example 109, 10-Methanesulfonyl-5-[4-(^2H3)methyl-1-methyl-1H-1,2,3-triazol-5-yl]-8-[(S)-oxan-4-yl(phenyl)methyl]-13-[(2R)-oxolan-2-ylmethoxy]-3,8,12-triazatricyclo[7.4.0.0^2,^7]trideca-1(13),2(7),3,5,9,11-hexaene]
IC50: < 10 nM

Compound: [2H]C([2H])([2H])c1nnn(C)c1-c1cnc2c3c(OCC4CCCO4)ncc(S(C)(=O)=O)c3n([C@H](c3ccccc3)C3CCOCC3)c2c1 (stereo partly drawn) [Example 110, 10-Methanesulfonyl-5-[4-(^2H3)methyl-1-methyl-1H-1,2,3-triazol-5-yl]-8-[(S)-oxan-4-yl(phenyl)methyl]-13-[(2S)-oxolan-2-ylmethoxy]-3,8,12-triazatricyclo[7.4.0.0^2,^7]trideca-1(13),2(7),3,5,9,11-hexaene]
IC50: < 10 nM

Compound: [2H]C([2H])([2H])c1nnn(C)c1-c1cnc2c3c(OC4COC4)ncc(S(C)(=O)=O)c3n([C@H](c3ccccc3)C3CCOCC3)c2c1 [Example 111, 10-Methanesulfonyl-5-[4-(^2H3)methyl-1-methyl-1H-1,2,3-triazol-5-yl]-8-[(S)-oxan-4-yl(phenyl)methyl]-13-(oxetan-3-yloxy)-3,8,12-triazatricyclo[7.4.0.0^2,^7]trideca-1(13),2(7),3,5,9,11-hexaene]
IC50: < 10 nM

Compound: [2H]C([2H])([2H])c1nnn(C)c1-c1cnc2c3c(OCC(F)F)ncc(S(C)(=O)=O)c3n([C@H](c3ccccc3)C3CCOCC3)c2c1 [Example 112, 13-(2,2-Difluoroethoxy)-10-methanesulfonyl-5-[4-(^2H3)methyl-1-methyl-1H-1,2,3-triazol-5-yl]-8-[(S)-oxan-4-yl(phenyl)methyl]-3,8,12-triazatricyclo[7.4.0.0^2,^7]trideca-1(13),2(7),3,5,9,11-hexaene]
IC50: < 1 nM

Compound: [2H]C([2H])([2H])c1nnn(C)c1-c1cnc2c3c(N[C@@H](C)C4CC4)ncc(S(C)(=O)=O)c3n([C@H](c3ccccc3)C3CCOCC3)c2c1 [Example 113, N-[(1S)-1-Cyclopropylethyl]-10-methanesulfonyl-5-[4-(^2H3)methyl-1-methyl-1H-1,2,3-triazol-5-yl]-8-[(S)-oxan-4-yl(phenyl)methyl]-3,8,12-triazatricyclo[7.4.0.0^2,^7]trideca-1(13),2(7),3,5,9,11-hexaen-13-amine]
IC50: < 1 nM

Compound: [2H]C([2H])([2H])c1nnn(C)c1-c1cnc2c3c(N[C@H](C)C4CC4)ncc(S(C)(=O)=O)c3n([C@H](c3ccccc3)C3CCOCC3)c2c1 [Example 114, N-[(1R)-1-Cyclopropylethyl]-10-methanesulfonyl-5-[4-(^2H3)methyl-1-methyl-1H-1,2,3-triazol-5-yl]-8-[(S)-oxan-4-yl(phenyl)methyl]-3,8,12-triazatricyclo[7.4.0.0^2,^7]trideca-1(13),2(7),3,5,9,11-hexaen-13-amine]
IC50: < 10 nM

Compound: [2H]C([2H])([2H])c1nnn(C)c1-c1cnc2c3c(N(C)CC)ncc(S(C)(=O)=O)c3n([C@H](c3ccccc3)C3CCOCC3)c2c1 [Example 115, N-Ethyl-10-methanesulfonyl-N-methyl-5-[4-(^2H3)methyl-1-methyl-1H-1,2,3-triazol-5-yl]-8-[(S)-oxan-4-yl(phenyl)methyl]-3,8,12-triazatricyclo[7.4.0.0^2,^7]trideca-1(13),2(7),3,5,9,11-hexaen-13-amine]
IC50: < 1 nM

Compound: [2H]C([2H])([2H])c1nnn(C)c1-c1cnc2c3c(N(C)C(C)C)ncc(S(C)(=O)=O)c3n([C@H](c3ccccc3)C3CCOCC3)c2c1 [Example 116, 10-Methanesulfonyl-N-methyl-5-[4-(^2H3)methyl-1-methyl-1H-1,2,3-triazol-5-yl]-8-[(S)-oxan-4-yl(phenyl)methyl]-N-(propan-2-yl)-3,8,12-triazatricyclo[7.4.0.0^2,^7]trideca-1(13),2(7),3,5,9,11-hexaen-13-amine]
IC50: < 1 nM

Compound: [2H]C([2H])([2H])c1nnn(C)c1-c1cnc2c3c(NCC(F)F)ncc(S(C)(=O)=O)c3n([C@H](c3ccccc3)C3CCOCC3)c2c1 [Example 117, N-(2,2-Difluoroethyl)-10-methanesulfonyl-5-[4-(^2H3)methyl-1-methyl-1H-1,2,3-triazol-5-yl]-8-[(S)-oxan-4-yl(phenyl)methyl]-3,8,12-triazatricyclo[7.4.0.0^2,^7]trideca-1(13),2(7),3,5,9,11-hexaen-13-amine]
IC50: < 10 nM

Compound: [2H]C([2H])([2H])c1nnn(C)c1-c1cnc2c3c(OC)nccc3n([C@H](c3ccccc3)C3CCOCC3)c2c1 [Example 128, 13-Methoxy-5-[4-(^2H3)methyl-1-methyl-1H-1,2,3-triazol-5-yl]-8-[(S)-oxan-4-yl(phenyl)methyl]-3,8,12-triazatricyclo[7.4.0.0^2,^7]trideca-1(13),2(7),3,5,9,11-hexaene]
IC50: < 10 nM

Compound: [2H]C([2H])([2H])c1nnn(C)c1-c1cnc2c3c(OCC)nccc3n([C@H](c3ccccc3)C3CCOCC3)c2c1 [Example 129, 13-Ethoxy-5-[4-(^2H3)methyl-1-methyl-1H-1,2,3-triazol-5-yl]-8-[(S)-oxan-4-yl(phenyl)methyl]-3,8,12-triazatricyclo[7.4.0.0^2,^7]trideca-1(13),2(7),3,5,9,11-hexaene]
IC50: < 1 nM

Compound: [2H]C([2H])([2H])c1nnn(C)c1-c1cnc2c3c(OCC4CC4)nccc3n([C@H](c3ccccc3)C3CCOCC3)c2c1 [Example 130, 13-(Cyclopropylmethoxy)-5-[4-(^2H3)methyl-1-methyl-1H-1,2,3-triazol-5-yl]-8-[(S)-oxan-4-yl(phenyl)methyl]-3,8,12-triazatricyclo[7.4.0.0^2,^7]trideca-1(13),2(7),3,5,9,11-hexaene]
IC50: < 1 nM

Compound: [2H]C([2H])([2H])c1nnn(C)c1-c1cnc2c3c(OC(C)C)nccc3n([C@H](c3ccccc3)C3CCOCC3)c2c1 [Example 131, 5-[4-(^2H3)Methyl-1-methyl-1H-1,2,3-triazol-5-yl]-8-[(S)-oxan-4-yl(phenyl)methyl]-13-(propan-2-yloxy)-3,8,12-triazatricyclo[7.4.0.0^2,^7]trideca-1(13),2(7),3,5,9,11-hexaene]
IC50: < 10 nM

Compound: [2H]C([2H])([2H])c1nnn(C)c1-c1cnc2c3c(N(C)CC)nccc3n([C@H](c3ccccc3)C3CCOCC3)c2c1 [Example 132, N-Ethyl-N-methyl-5-[4-(^2H3)methyl-1-methyl-1H-1,2,3-triazol-5-yl]-8-[(S)-oxan-4-yl(phenyl)methyl]-3,8,12-triazatricyclo[7.4.0.0^2,^7]trideca-1(13),2(7),3,5,9,11-hexaen-13-amine]
IC50: < 1 nM

Compound: [2H]C([2H])([2H])c1nnn(C)c1-c1cnc2c3c(NCC(F)F)nccc3n([C@H](c3ccccc3)C3CCOCC3)c2c1 [Example 133, N-(2,2-Difluoroethyl)-5-[4-(^2H3)methyl-1-methyl-1H-1,2,3-triazol-5-yl]-8-[(S)-oxan-4-yl(phenyl)methyl]-3,8,12-triazatricyclo[7.4.0.0^2,^7]trideca-1(13),2(7),3,5,9,11-hexaen-13-amine]
IC50: < 1 nM

Compound: [2H]C([2H])([2H])c1nnn(C)c1-c1cnc2c3c(NCC(F)(F)F)nccc3n([C@H](c3ccccc3)C3CCOCC3)c2c1 [Example 134, 5-[4-(^2H3)Methyl-1-methyl-1H-1,2,3-triazol-5-yl]-8-[(S)-oxan-4-yl(phenyl)methyl]-N-(2,2,2-trifluoroethyl)-3,8,12-triazatricyclo[7.4.0.0^2,^7]trideca-1(13),2(7),3,5,9,11-hexaen-13-amine]
IC50: < 1 nM

Compound: COC(=O)c1cnc(OC)c2c3ncc(-c4c(C)nnn4C)cc3n([C@H](c3ccccc3)C3CCOCC3)c12 [Example 135, Methyl 5-(dimethyl-1H-1,2,3-triazol-5-yl)-13-methoxy-8-[(S)-oxan-4-yl(phenyl)methyl]-3,8,12-triazatricyclo[7.4.0.0^2,^7]trideca-1(9),2,4,6,10,12-hexaene-10-carboxylate]
IC50: < 1 nM

Compound: COc1ncc(CO)c2c1c1ncc(-c3c(C)nnn3C)cc1n2[C@H](c1ccccc1)C1CCOCC1 [Example 136, [5-(Dimethyl-1H-1,2,3-triazol-5-yl)-13-methoxy-8-[(S)-oxan-4-yl(phenyl)methyl]-3,8,12-triazatricyclo[7.4.0.0^2,^7]trideca-1(9),2,4,6,10,12-hexaen-10-yl]methanol]
IC50: < 10 nM

Compound: COc1ncc(C(=O)N2CC(F)C2)c2c1c1ncc(-c3c(C)nnn3C)cc1n2[C@H](c1ccccc1)C1CCOCC1 [Example 137, 5-(dimethyl-1H-1,2,3-triazol-5-yl)-10-(3-fluoroazetidine-1-carbonyl)-13-methoxy-8-[(S)-oxan-4-yl(phenyl)methyl]-3,8,12-triazatricyclo[7.4.0.0^2,^7]trideca-1(9),2,4,6,10,12-hexaene]
IC50: < 10 nM

Compound: [2H]C([2H])([2H])c1nnn(C)c1-c1cnc2c3c(OC)ncc(C(C)(C)O)c3n([C@H](c3ccccc3)C3CCOCC3)c2c1 [Example 138, 2-{13-Methoxy-5-[4-(^2H3)methyl-1-methyl-1H-1,2,3-triazol-5-yl]-8-[(S)-oxan-4-yl(phenyl)methyl]-3,8,12-triazatricyclo[7.4.0.0^2,^7]trideca-1(13),2(7),3,5,9,11-hexaen-10-yl}propan-2-ol]
IC50: < 10 nM

IC50: < 10 nM
Compound: [2H]C([2H])([2H])c1nnn(C)c1-c1cnc2c3c(OC)ncc(CO)c3n([C@H](c3ccccc3)C3CCOCC3)c2c1 [Example 139, {13-methoxy-5-[4-(^2H3)methyl-1-methyl-1H-1,2,3-triazol-5-yl]-8-[(S)-oxan-4-yl(phenyl)methyl]-3,8,12-triazatricyclo[7.4.0.0^2,^7]trideca-1(9),2,4,6,10,12-hexaen-10-yl}methanol]
